Test results taken from ChEMBL document CHEMBL3507680, “University of Dundee, Gates Library screen for HepG2 cell viability”.

Test: Human HepG2 cell viability assay in 384 well format
Type: toxicity, cell-based
Design: dose 125 nL, time 70.5 hour; concentration not given beside the values
Settings: HepG2 cells, read-out: Inhibition

Row | Compound | cytotoxicity at 70.5 h
1 | CN(Cc1cnn(C)c1)S(=O)(=O)N1CCCCCC1 | -9.53%
2 | CCOCc1nc2c(c(N(C)Cc3nonc3C)n1)CCNCC2 | -11.4%
3 | Cc1cnn(CC(=O)NCC2CCN(c3cc(Cl)ccc3C)C2)c1 (configuration not stated) | 6.3%
4 | CC(=O)N[C@H]1CN(CC(=O)NCc2ccccc2C)C[C@@H]1C(C)C | -4.45%
5 | Cc1ccc(CNC(=O)N2CCN(C(C)c3cccnc3)CC2)cn1 (configuration not stated) | -3.85%
6 | O=C(c1ccc[nH]1)N(Cc1ccc(O)cc1)CC1CC1 | 20.8%
7 | c1ccc2oc(CN3CCCC(Cn4cncn4)C3)nc2c1 (configuration not stated) | -1.69%
8 | COCCN(C(=O)c1ccccn1)c1nc2c(s1)CCc1c-2cnn1C | 14.7%
9 | c1cc(N2CCSCC2)ccc1CNc1cncc2nnnn12 | -12.4%
10 | O=C1CC[C@@H](C(=O)N2CCC(Cn3cc(C4CCCCC4)nn3)CC2)N1 | -1.59%
11 | Cc1occc1C(=O)N1CC[C@@H](N2CCOCC2)[C@@H]1Cc1ccccc1 | -7.85%
12 | CCN1C(=O)CC[C@@H]2[C@H]1CCN2C(=O)Cc1cccc(OC)c1 | 0.943%
13 | CC1CCN(CCNC(=O)C2CCN(C(=O)NC(C)C)CC2)CC1 | -6.3%
14 | CC(CNC(=O)Nc1ccc(F)cc1Br)N1CCOCC1 (configuration not stated) | 31.4%
15 | Cc1ccc(OCC2CCCN(c3cc(C(N)=O)ccn3)C2)cc1 (configuration not stated) | 4.54%
16 | CC(C)c1nc(C2CCCN(C(=O)CCCn3cncn3)C2)no1 (configuration not stated) | -16%
17 | Cc1ccc(CNC(=O)CN2CCOC(Cn3cncn3)C2)s1 (configuration not stated) | -2.32%
18 | CCC1=NC2(CCC(C(=O)Nc3ccc(F)cc3)CC2)C(=O)N1C (configuration not stated) | -5.04%
19 | O=C(CC1COCCN1)N1CCC(N2CCc3ccccc3C2)CC1 (configuration not stated) | 7.65%
20 | Cc1n[nH]c(C2CN(C(=O)c3csnn3)CCO2)n1 (configuration not stated) | -11.9%
21 | Cc1oc(C(=O)O)cc1S(=O)(=O)Nc1ccccc1F | -11.3%
22 | O=C(NCCc1cccc(F)c1)C1(n2cnnn2)CCCCC1 | -3.65%
23 | COc1ncc(C(=O)N2CCCC3(C=Cc4ccccc4O3)CC2)cn1 (configuration not stated) | 13.5%

Row | Compound | cytotoxicity at 70.5 h
24 | COCCC(=O)N1CCC(c2nc(O)cc(-c3ccncc3)n2)C1 (configuration not stated) | -11.8%
25 | CC1CC(=O)c2cc(C(=O)N3CCc4ccccc4C3)c(=O)[nH]c2C1 (configuration not stated) | -2.25%
26 | CN1CCN(C2CCN(CCCOc3ccc(F)cc3)CC2)C1=O | 19.6%
27 | Cc1cccc(C(=O)N2CC[C@@H]3CN(c4ncccn4)CCO[C@@H]3C2)c1 | -9.91%
28 | O=C(NCCCC(=O)N1Cc2ccccc2C1)NCc1ccsc1 | 5.3%
29 | CCS(=O)(=O)c1ncc(CN2CCOCC2)n1CCCc1ccccc1 | 19.9%
30 | Cn1cccc1C(=O)NCc1cn2c(n1)CN(Cc1cccnc1)CC2 | -12.8%
31 | c1cc(CN2CCCC3(COCCN(Cc4c[nH]nn4)C3)C2)cs1 (configuration not stated) | -2.64%
32 | Cc1cccc(CN2C[C@@H]3COC[C@]3(CNC(=O)C3CC3)C2)c1 | -9.63%
33 | Cc1csc(C(=O)N2CCCC(c3[nH]ncc3S(C)(=O)=O)C2)c1 (configuration not stated) | -0.679%
34 | O=C1COc2cc(S(=O)(=O)NCCC3=CCCCC3)c(Cl)cc2N1 | 14.7%
35 | O=C(NCCN1CCCCCC1=O)Nc1cccnc1-n1cccn1 | 23.5%
36 | C[C@H]1C[C@H]2CN(S(=O)(=O)c3ccc(F)cc3)CC[C@@H]2O1 | -3.04%
37 | CS(=O)(=O)CCC(=O)NC(c1ccc(F)cc1)C(F)(F)F (configuration not stated) | -1.59%
38 | Cc1cc(C)n(CC2CN(Cc3nc(-c4ccco4)no3)CCO2)n1 (configuration not stated) | 2.57%
39 | NC(=O)N1CCCC(C(=O)N2CCc3c(nc(CC4CC4)[nH]c3=O)C2)C1 (configuration not stated) | -6.32%
40 | CCOC(=O)N1CCN(C(=O)c2snnc2-c2ccc(OC)cc2)CC1 | -11.6%
41 | Cn1nnn(-c2ccc(NS(=O)(=O)c3ccc(Br)cc3)cc2)c1=O | -2.26%
42 | c1ccc2oc(N3CCn4c(nnc4C4CC4)C3)nc2c1 | -2.1%
43 | Cc1cc2[nH]c(CN3CCOC(c4ccc(F)cc4)C3)cc(=O)n2n1 (configuration not stated) | -3.51%
44 | CCc1nc(CN(C)CC(N)=O)cs1 | -4.25%
45 | CCc1nc(CC(=O)N2CCCC2CN2CCCC2)cs1 (configuration not stated) | -1.93%
46 | CN(C)CCNC(=O)CCC1CCN(C(=O)c2ccc(O)cn2)CC1 | -6.92%

Row | Compound | cytotoxicity at 70.5 h
47 | CN1C[C@@H]2CN(Cc3ccsc3)CCC[C@]2(C(=O)O)C1 | -2.55%
48 | Cc1ccc(Sc2ccc(N3CCCC(C(=O)O)C3)nn2)cc1 (configuration not stated) | 0.439%
49 | CNC(=O)C1CN(Cc2cc(C)on2)CCN(C(C)=O)C1 (configuration not stated) | -9.11%
50 | CC(=O)Nc1nc(CN2CCn3c(nnc3C3CC3)C2)cs1 | -7.7%
51 | CCOCC1CN(S(=O)(=O)N(C)C)Cc2cnn(CC)c21 (configuration not stated) | -8.84%
52 | COc1ccc2cnn(CC(=O)NCC3CCCO3)c(=O)c2c1OC (configuration not stated) | -3.4%
53 | COCC(C)(NC(=O)c1cc(Cl)c(-n2cccc2)cc1OC)C(N)=O (configuration not stated) | -2.57%
54 | COCC1c2nnn(C)c2CCN1C(=O)c1ccc(OC)c(F)c1 (configuration not stated) | -7.3%
55 | Cc1cc(C(=O)N2CCCC(c3cc(C(F)(F)F)[nH]n3)C2)on1 (configuration not stated) | -4.58%
56 | Cc1ccccc1OCCCC(=O)NCC1CN(C)CCO1 (configuration not stated) | -1.6%
57 | CSCC(C)(O)CNC(=O)c1ccc(Br)cc1C (configuration not stated) | -9.56%
58 | CCSc1nnc(N(CCC#N)CCC#N)s1 | 1.21%
59 | CCn1cc(CN(C)Cc2cnn(-c3ccc(F)cc3)c2)cn1 | 13.5%
60 | CCC(CC)C(=O)N1CCOC2(COCCN(CC(=O)NC)C2)C1 (configuration not stated) | -11.7%
61 | O=C(CN(CC1CCC1)CC(F)(F)F)N1CCOCC1 | -5.14%
62 | O=C(O)c1ccccc1CN1CCCC(Cc2ccn[nH]2)C1 (configuration not stated) | -8.52%
63 | CN(CCc1ccccn1)C(=O)c1ccccc1F | -4.18%
64 | CCCNC(=O)c1cc(C(C)C)nc(N2CCCCC2)n1 | 3.03%
65 | OCCCc1nncn1-c1cccc(C(F)(F)F)c1 | -1.23%
66 | CCCNC(=O)c1cc2c([nH]c1=O)CC(c1cccs1)CC2=O (configuration not stated) | -19.4%
67 | CSc1cccc(CN2CCC(CCC(=O)NC3CC3)CC2)c1 | -7.44%
68 | CCn1ncc(Cn2cc(Cl)c(N)n2)c1C | 19.5%
69 | Cc1nccn1-c1ccc(NS(=O)(=O)c2cnn(C(C)C)c2)cn1 | -2.54%

Row | Compound | cytotoxicity at 70.5 h
70 | CC(C)(C)C(=O)CN1Cc2ccccc2NCCC1=O | 0.78%
71 | CC(C)S(=O)(=O)C(C)C(=O)NCc1cccc(N2CCCCC2=O)c1 (configuration not stated) | 13.6%
72 | Cc1nn(C)cc1-c1ccnc(N(C)Cc2ccc(F)cc2)n1 | -4.85%
73 | Cc1cc(CSc2ccccn2)on1 | -3.89%
74 | Cc1nccn1CCN(C)C(=O)C1CCN(C(=O)C2CCC2)CC1 | 11.3%
75 | Cc1csc(S(=O)(=O)N2CCN(C)C3(CCC(=O)N(C)CC3)C2)c1 (configuration not stated) | -11.5%
76 | O=C(CCCOc1ccccc1Cl)N1CCCC(n2cncn2)C1 (configuration not stated) | 11%
77 | Cc1ccc(S(=O)(=O)NCC(O)c2ccoc2)s1 (configuration not stated) | -12.5%
78 | COCCN1CCC(c2cncc(N(C)C)n2)CC1 | 16.5%
79 | CNC(=O)Cn1c(-c2ccco2)nn(-c2ccccc2OC)c1=O | 9.58%
80 | CC(=O)c1ccc(S(=O)(=O)N2CCC(c3n[nH]c(C)n3)CC2)cc1 | 24.3%
81 | CS(=O)(=O)N1CCC(C(=O)NCCNc2ncccn2)CC1 | -19.2%
82 | COc1cccc2c1ccn2CC(=O)Nc1nc[nH]n1 | -11.8%
83 | O=C(Nc1nccs1)NC1CCN(Cc2ccccc2)CC1 | -15.7%
84 | c1ccc(CN2C[C@@H]3OCCN(c4cccnc4)[C@@H]3C2)nc1 | -12.2%
85 | Cc1nc(C2CCCNC2)nc2c1CCCN2Cc1ccccn1 (configuration not stated) | -3.47%
86 | CC1c2ncc(COCC3CCOCC3)n2CCN1C(=O)c1ccoc1 (configuration not stated) | -2.87%
87 | Cc1cccc(C(=O)N2CCN(S(C)(=O)=O)[C@@H]3CS(=O)(=O)C[C@@H]32)n1 | -7.33%
88 | Cc1cc(F)ccc1CNCc1cccc(C(=O)N2CCCC2)c1 | -1.53%
89 | CC(C)NC(=O)c1ccc2c(c1)nc1n2CCN(Cc2ccco2)C1 | -10.4%
90 | Cc1nnc2n1CCN(C(C(=O)NC(C)C)c1ccccc1)C2 (configuration not stated) | 19.5%
91 | O=C1N(Cc2cccnc2)C[C@H]2CN(C3CCOCC3)CCN12 | -0.196%
92 | Cc1cnn(C2CCCN(C(=O)c3cc(-c4ccccc4C)n[nH]3)C2)c1 (configuration not stated) | 9.61%

Row | Compound | cytotoxicity at 70.5 h
93 | NC(=O)c1cccc2nc([C@H]3CCN(Cc4ccccn4)C3)[nH]c12 | -0.598%
94 | CC(=O)NCCNC(=O)c1cc(COc2ccccc2)[nH]n1 | 1.84%
95 | Cc1cc(=O)c2ccccc2n1CC1CCCN(C)C1 (configuration not stated) | 31.9%
96 | CCc1ccc(CN2CCN(CCOC)[C@@H]3CS(=O)(=O)C[C@@H]32)cc1 | 1.39%
97 | O=C(CSc1ccc2c(c1)OCCO2)NS(=O)(=O)c1cccs1 | -6.92%
98 | CCC1(CC)CC(=O)N(CC(O)c2ccc(Cl)cc2)C1=O (configuration not stated) | -4.91%
99 | CSC1(CNC(=O)NC(C)c2ccc(F)cc2)CCOCC1 (configuration not stated) | 6.41%
100 | CN(Cc1ccco1)[C@@H]1CN(CC2CCOCC2)[C@@H]2CCCO[C@H]12 | -11.5%
101 | CCC(=O)N1CC[C@H]2[C@H](C[C@@H](Cn3cccn3)N2c2nccs2)C1 | 8.28%
102 | CCN(CC)C(=O)CCNC(=O)c1ccccc1N1CCOCC1 | 23.2%
103 | CC(=O)N1N=C(c2cccs2)OC1C(=O)Nc1ccc(C)cc1 (configuration not stated) | 1.28%
104 | O=C(Nc1ccc(N2CCCCC2)cn1)C1CCCN1C(=O)C1CC1 (configuration not stated) | -4.38%
105 | CN(C)S(=O)(=O)N1CCC[C@]2(C[C@@H](Oc3ncccc3F)CO2)C1 | -11.4%
106 | CC(C)C(N)C1=N/C(=C2\N=CN=N2)NO1 (configuration not stated) | 5.13%
107 | COc1c(C2CCCN2C(=O)c2ccc(O)nc2)c(C)nn1C (configuration not stated) | -8.59%
108 | Cc1cccc(CN2C(=O)CCC23CCN(Cc2nccn2C)CC3)n1 | -4.21%
109 | CC(C)C(=O)N1CC[C@@H]2CN(Cc3ccncc3)S(=O)(=O)[C@@H]2CC1 | -3.99%
110 | O=C(NCCn1ccnc1)C1COCC(=O)N1Cc1ccccc1 (configuration not stated) | 9.74%
111 | CNC(=O)C1(c2cnccn2)CCCN1C(=O)c1ccc(OC)cc1 (configuration not stated) | 18.7%
112 | COCc1c(Br)cccc1NC(=O)CC(F)(F)F | -13.2%
